According to patent US10806765B2, “Immunologically active phyto-mixture and its use in the prevention and in a method for treatment of efflorescences” (priority 2015, dated 2020):
In brackets after ≈: the same amount, converted by molar mass. Read-outs that look alike come from different tables or passages of the source.

Key:
Type in all cases: cell-based
[1] = tested on: Methicillin resistant Staphylococcus aureus MRSA NCTC 10442; experiment: MIC/MBC, microbouillon dilution
Method: (§1) Gram-Positive Bacteria • Methicillin resistant Staphylococcus aureus MRSA NCTC 10442 (MRSA NCTC 10442) • Staphylococcus aureus ATCC 25923 (S. aureus ATCC 25923) • Staphylococcus epidermidis ATCC 14990 (S. epid. ATCC 14990)
(§2) Gram-Negative Bacteria • Pseudomonas aeruginosa ATCC 27853 (P. aerug. ATCC 27853) and • Acinetobacter baumanii ATCC BAA747 (ATCC BAA747)
(§3) The bacteria were precultivated on Columbia medium with 5% sheep blood at 37° C. for 24 hours. On to two colonies were suspended in saline solution (0.9% NaCl) and adjusted to a turbidity of 0.5 McFarland standard which corresponds to 1×10^8 colony forming units per milliliter (CFU/ml). Subsequently, the suspension was diluted to 1×10^6 CFU/ml.
(§4) Determination of the Minimal Inhibitory Concentration (MIC) and the Minimum Bactericidal Concentration (MBC)
(§5) The MIC was determined by means of the microbouillon dilution process according to NCCLS (2006). For this purpose, the aqueous extracts were dissolved in water (w/v) and the ethanolic extracts in 5% DMSO (w/v) with 80 mg/ml each and Bur. simaruba as well as Aloe vera were suspended with 160 mg/ml. The extracts and the combinations (1:1 mixture) of two plant extracts were respectively transferred into a sample well of a 96-well plate. The individual extracts were respectively adjusted to a concentration of 4 mg/ml to 8 mg/ml and 0.03 mg/ml and the combinations to 2:2 mg/ml to 0.3:0.3 mg/ml. Subsequently, the bacteria suspensions with about 5×10^5 CFU/ml in Müller Hinton medium (Fluka) were respectively added. The accordingly fitted 96-well plates were incubated at 37° C. for 24 hours.
(§6) The MIC was determined at 600 nm on the basis of the turbidity. In order to determine the MBC, 3 μl of the suspension of the respective sample well were spread on an full culture medium and incubated at 37° C. for 24 hours. The MBC was determined as lowest concentrations of the respective extract which totally kills the microorganisms.
(§7) All experiments were performed as three-fold determination (Table 4 to 5). The antibiotics Vancomycin (briefly: Van) and Streptomycin (briefly: Strep) were used parallely to each experimental approach as positive control for antimicrobial efficiency (Table 5c). Respectively one of the mentioned test germs was carried along with the respectively solvent (water, DMSO) as negative control for an inhibiting effect by the used solvent.

[2] = tested on: Acinetobacter baumanii ATCC BAA747; experiment: MIC/MBC, microbouillon dilution; conditions: Acinetobacter baumannii, ATCCBAA747
Method: as §1, §2, §3, §4, §5, §6, §7

[3] = tested on: Staphylococcus aureus ATCC 25923; experiment: MIC/MBC, microbouillon dilution
Method: as §1, §2, §3, §4, §5, §6, §7

[4] = tested on: Staphylococcus epidermidis ATCC 14990; experiment: MIC/MBC, microbouillon dilution
Method: as §1, §2, §3, §4, §5, §6, §7

[5] = MTT-assay, cytotoxicity of the extracts; conditions: human, HaCaT cells (keratinocytes), individual extracts, mean ± SD, n=3
Method: HaCaT-Cells (human in vitro spontaneous transformed keratinocytes from histologically normal skin) of DMSZ (German Collection of Microorganisms and Cell Cultures) were kept in Dulbecco's modified Eagle Medium (DMEM) with glutamax (Invitrogen/Gibco, Karlsruhe, Germany) with 10% fetal calf serum (Sigma Aldrich, Germany), 100 U/ml penicillin and 100 μg/ml streptomycin and 1% NEAA.
The cells were cultivated at 37° C., 5% CO2 and 95% humidity. The cells were subcultivated by removing the medium, adding 0.075% EDTA-solution in 1-fold PBS (phosphate-buffered salt solution) and subsequently incubated at 37° C. for 10 min. […]
In order to determine the concentration dependent cytotoxicity 2×10^4 HaCaT-cells/sample well of a 96-well plate were transferred and incubated for 24 hours. […] After dissolving the formazan crystals formed by the HaCaT-cells in 100 μl DMSO (10 minutes shaking), absorption at 570 nm was measured (by means of Tecan Safire II Reader, Tecan Crailsheim, Germany). Doxorubicin was measured as reference. Cell vitality was determined according to the following formula:
IC50-values were calculated through the dose response curve which was created by use of a logistic regression curve with 4 parameters with the GraphPad Prism® 5.01 Software or SigmaPlot® 11.0.

[6] = tested on: Pseudomonas aeruginosa ATCC 27853; experiment: MIC/MBC, microbouillon dilution; conditions: ATCC27853, positive control antibiotic, unit from Table 5c
Method: as §1, §2, §3, §4, §5, §6, §7

`CN[C@H](CC(C)C)C(=O)N[C@H]1C(=O)N[C@@H](CC(N)=O)C(=O)N[C@H]2C(=O)N[C@H]3C(=O)N[C@H](C(=O)N[C@H](C(=O)O)c4cc(O)cc(O)c4-c4cc3ccc4O)[C@H](O)c3ccc(c(Cl)c3)Oc3cc2cc(c3O[C@@H]2O[C@H](CO)[C@@H](O)[C@H](O)[C@H]2O[C@H]2C[C@](C)(N)[C@H](O)[C@H](C)O2)Oc2ccc(cc2Cl)[C@H]1O` [Van, Vancomycin] gave an MBC [1] of 2 µg/mL, an MIC [1] of 1 µg/mL and an MBC [2] of 128 µg/mL. For the same molecule, the MIC [2] was 64 µg/mL, the MBC ([3]; ATCC25923) was 0.5 µg/mL and the MBC ([4]; ATCC14990) was 2 µg/mL. The MIC ([4]; ATCC14990) was 1 µg/mL.
`COc1cccc2c1C(=O)c1c(O)c3c(c(O)c1C2=O)C[C@@](O)(C(=O)CO)C[C@@H]3O[C@H]1C[C@H](N)[C@H](O)[C@H](C)O1` [Doxorubicin] gave an IC50 [5] of 8.6 ± 2.03 µg/mL (≈ 15.8 µM).
Work on `[H]/N=C(/N)N[C@H]1[C@H](O)[C@@H](O)[C@H](O[C@@H]2O[C@@H](C)[C@](O)(C=O)[C@H]2O[C@@H]2O[C@@H](CO)[C@H](O)[C@@H](O)[C@@H]2NC)[C@@H](N/C(N)=N\[H])[C@@H]1O` [Strep, Streptomycin] yielded an MBC ([2]; positive control antibiotic, unit from Table 5c, read-out: MBC) of 4 µg/mL, an MIC ([2]; positive control antibiotic, unit from Table 5c, read-out: MIC) of 2 µg/mL and an MBC [6] of 8 µg/mL. It also gave an MIC [6] of 4 µg/mL, an MIC ([3]; ATCC25923, positive control antibiotic, unit from Table 5c) of 2 µg/mL and an MBC ([3]; ATCC25923, positive control antibiotic, unit from Table 5c, read-out: MBC) of 8 µg/mL. For the same molecule, the MBC ([4]; ATCC14990, positive control antibiotic, unit from Table 5c, read-out: MBC) was 8 µg/mL and the MIC ([4]; ATCC14990, positive control antibiotic, unit from Table 5c, read-out: MIC) was 1 µg/mL.
